Values of other authors as cited in PubChem BioAssay AID1259410 (Chemical Carcinogenesis Research Information System (CCRIS), 2018).

Tested on: rodent tumor promotion studies, tumor incidence
Assay: CCRIS tumor promotion studies

## COC(=O)/C=C/C=C/CCCCCCCCCCCCCO
Carcinogen: 7,12-DIMETHYLBENZ(A)ANTHRACENE, Doses [Carcinogen]: TOP, Route [Carcinogen]: DERMAL, Route [Promoter]: DERMAL, Species: MOUSE, Strain/Sex: MALE,FEMALE
  outcome: integumentary system (skin)

## CCCCCCCCCCCCCC(=O)O[C@@]12C[C@@H](C)[C@@]3(O)[C@@H](C=C(CO)C[C@]4(O)C(=O)C(C)=C[C@@H]34)[C@@H]1C2(C)C
Carcinogen: 7,12-DIMETHYLBENZ[A]ANTHRACENE, 57-97-6, Doses [Carcinogen]: 100 NMOL ONCE, Doses [Promoter]: 0, 80 NMOL 2/WK FOR 42 WK (STUDY DURATION: 42 WK), Route [Carcinogen]: DERMAL, Route [Promoter]: DERMAL, Species: MOUSE, Strain/Sex: NMRI
  outcome: skin: tumor

## O=C(O)C(Cl)(Cl)Cl
Carcinogen: N-METHYL-N-NITROSOUREA, 684-93-5, Doses [Carcinogen]: 25 MG/KG IN STERILE SALINE ONCE, Doses [Promoter]: 0, 25 MMOL/L IN DRINKING WATER FOR 44 WK BEGINNING 2 WK POST CARCINOGEN DOSE (STUDY DURATION: 46 WK), Route [Carcinogen]: INTRAPERITONEAL, Route [Promoter]: ORAL, Species: MOUSE, Strain/Sex: B6C3F1/FEMALE
  outcome: liver: adenoma
Carcinogen: N-METHYL-N-NITROSOUREA, 684-93-5, Doses [Carcinogen]: 25 MG/KG ONCE AT 15 D OF AGE, Doses [Promoter]: 0, 20 NMOL/L IN DRINKING WATER FOR 31 WK BEGINNING AT 7 WK OF AGE (STUDY DURATION: 31 WK), Route [Carcinogen]: INTRAPERITONEAL, Route [Promoter]: ORAL, Species: MOUSE, Strain/Sex: B6C3F1/FEMALE
  outcome: liver: adenoma
Carcinogen: N-METHYL-N-NITROSOUREA, 684-93-5, Doses [Carcinogen]: 25 MG/KG ONCE AT 15 D OF AGE, Doses [Promoter]: 0, 20 NMOL/L IN DRINKING WATER FOR 31 WK BEGINNING AT 7 WK OF AGE (STUDY DURATION: 52 WK), Route [Carcinogen]: INTRAPERITONEAL, Route [Promoter]: ORAL, Species: MOUSE, Strain/Sex: B6C3F1/FEMALE
  outcome: liver: adenoma, carcinoma
Carcinogen: N-METHYL-N-NITROSOUREA, 684-93-5, Doses [Carcinogen]: 25 MMG/KG ONCE AT 15 D OF AGE, Doses [Promoter]: 0, 6.67, 20 NMOL/L IN DRINKING WATER FOR 52 WK BEGINNING AT 7 WK OF AGE (STUDY DURATION: 52 WK), Doses [Promoter]: 0, 6.67, 20 NMOL/L IN DRINKING WATER FOR 52 WK BEGINNING AT 7 WK OF AGE (STUDY DURATION: 52 WK), Route [Carcinogen]: INTRAPERITONEAL, Route [Promoter]: ORAL, Species: MOUSE, Strain/Sex: B6C3F1/FEMALE
  outcome: liver: adenoma, carcinoma

## N[C@@H](Cc1cc(I)c(Oc2cc(I)c(O)c(I)c2)c(I)c1)C(=O)O
Carcinogen: AZOXYMETHANE, 25843-45-2, Doses [Carcinogen]: 7.4 MG/KG IN 0.9% SALINE 1/WK FOR 10 WK, Doses [Promoter]: 0, 0.2 UG/KG IN OLIVE OIL 1/2 D FOR 35 WK (STUDY DURATION: 35 WK), Route [Carcinogen]: SUBCUTANEOUS, Route [Promoter]: SUBCUTANEOUS, Species: RAT, Strain/Sex: WISTAR/MALE
  outcome: colon: tumor
Carcinogen: N-METHYL-N'-NITRO-N-NITROSOGUANIDINE, 70-25-7, Doses [Carcinogen]: 25 UG/ML IN DRINKING WATER FOR 25 WK, Doses [Promoter]: 0, 0.2 UG/KG BW IN OLIVE OIL 1/2 D BEGINNING POST CARCINOGEN TREATMENT AND CONTINUING FOR 26 WK (STUDY DURATION: 52 WK), Route [Carcinogen]: ORAL, Route [Promoter]: SUBCUTANEOUS, Species: RAT, Strain/Sex: WISTAR/MALE
  outcome: stomach: adenocarcinoma

## Nc1ccc(Cc2ccc(N)cc2)cc1
Carcinogen: 2,2'-DIHYDROXY-N-NITROSODIPROPYLAMINE, 53609-64-6, Doses [Carcinogen]: 280 MG/100 G IN 0.5 ML SALINE ONCE, Doses [Promoter]: 0, 1000 PPM IN DIET FOR 19 WK (STUDY DURATION: 19 WK), Route [Carcinogen]: INTRAPERITONEAL, Route [Promoter]: ORAL, Species: RAT, Strain/Sex: WISTAR/MALE
  outcome: thyroid: tumor
Carcinogen: N-BIS(2-HYDROXYPROPYL)NITROSAMINE, 53609-64-6, N-ETHYL-N-HYDROXYETHYLNITROSAMINE, 13147-25-6, 3,2'-DIMETHYL-4-AMINOB, Carcinogen: N-BIS(2-HYDROXYPROPYL)NITROSAMINE, 53609-64-6, N-ETHYL-N-HYDROXYETHYLNITROSAMINE, 13147-25-6, 3,2'-DIMETHYL-4-AMINOB, Doses [Carcinogen]: 1000 MG/KG IP IN SALINE ON DAY 1 AND 4, 1500 MG/KG IG IN DISTILLED WATER ON DAY 8 AND 11, 75 MG/KG SC IN CORN OIL ON D, Doses [Carcinogen]: 1000 MG/KG IP IN SALINE ON DAY 1 AND 4, 1500 MG/KG IG IN DISTILLED WATER ON DAY 8 AND 11, 75 MG/KG SC IN CORN OIL ON D, Doses [Promoter]: 0, 0.1% IN DIET BEGINNING 1 WK POST LAST CARCINOGEN DOSE AND CONTINUING FOR 12 WK (STUDY DURATION: 16 WK), Route [Carcinogen]: INTRAPERITONEAL, GAVAGE, SUBCUTANEOUS, Route [Carcinogen]: INTRAPERITONEAL, GAVAGE, SUBCUTANEOUS, Route [Promoter]: ORAL, Species: RAT, Strain/Sex: F344/MALE
  outcome: thyroid: adenoma, adenocarcinoma

## O=P(O)(O)O
Carcinogen: N-BUTYL-N-(4-HYDROXYBUTYL)NITROSAMINE, 3817-11-6, Doses [Carcinogen]: 0.05% IN DRINKING WATER FOR 4 WK, Doses [Promoter]: 0, 1.4% IN DIET FOR 32 WK BEGINNING POST CARCINOGEN TREATMENT (STUDY DURATION: 36 WK), Route [Carcinogen]: ORAL, Route [Promoter]: ORAL, Species: RAT, Strain/Sex: F344/MALE
  outcome: urinary bladder: papilloma
Carcinogen: N-ETHYL-N-HYDROXYETHYLNITROSAMINE, 13147-25-6, Doses [Carcinogen]: 1000 PPM IN DIET FOR 2 WK, Doses [Promoter]: 0, 10% IN DIET OF UNILATERALLY NEPHRECTOMIZED RATS BEGINNING POST CARCINOGEN TREATMENT AND CONTINUING FOR 18 WK (STUDY D, Route [Carcinogen]: ORAL, Route [Promoter]: ORAL, Species: RAT, Strain/Sex: WISTAR/MALE
  outcome: kidney: renal cell tumor
Carcinogen: N-ETHYL-N-HYDROXYETHYLNITROSAMINE, 13147-25-6, Doses [Carcinogen]: 1000 PPM IN DIET FOR 2 WK, Doses [Promoter]: 0, 50000 PPM IN DIET FOR 18 WK ADMINISTERED TO UNILATERALLY NEPHRECTOMIZED RATS (STUDY DURATION: 20 WK), Route [Carcinogen]: ORAL, Route [Promoter]: ORAL, Species: RAT, Strain/Sex: WISTAR/MALE
  outcome: kidney: renal cell tumor

## CN(C)CCC=C1c2ccccc2CCc2ccccc21
Carcinogen: 7,12-DIMETHYLBENZ[A]ANTHRACENE, 57-97-6, Doses [Carcinogen]: 20 MG IN 2 ML PEANUT OIL ONCE, Doses [Promoter]: 0, 80 MG/M2 5 D/WK FOR 15 WK BEGINNING POST CARCINOGEN DOSE (STUDY DURATION: 15 WK), Route [Carcinogen]: GAVAGE, Route [Promoter]: INTRAPERITONEAL, Species: RAT, Strain/Sex: SPRAGUE-DAWLEY/FEMALE
  outcome: mammary gland: tumor

## Oc1ccc2c(c1)CCCC2
Carcinogen: 7,12-DIMETHYLBENZ(A)ANTHRACENE, Doses [Carcinogen]: TOP, Route [Carcinogen]: DERMAL, Route [Promoter]: DERMAL, Species: MOUSE, Strain/Sex: FEMALE
  outcome: integumentary system (skin)

## CC(=O)[O-].CC(=O)[O-].[OH-].[OH-].[OH-].[OH-].[Pb+2].[Pb+2].[Pb+2]
Carcinogen: N-ETHYL-N-(2-HYDROXYETHYL)NITROSAMINE, Doses [Carcinogen]: 0.1% IN DRINKING WATER FOR 1 WK, Doses [Promoter]: 0.1% IN DIET FOR 35 WK, Route [Carcinogen]: ORAL, Route [Promoter]: ORAL, Species: RAT, Strain/Sex: F344/MALE
  outcome: kidney: renal cell tumor
Carcinogen: N-ETHYL-N-(2-HYDROXYETHYL)NITROSAMINE, Doses [Carcinogen]: 500 PPM IN DIET FOR TWO WK, Doses [Promoter]: 1000 PPM IN DIET FOR 20 WK, Route [Carcinogen]: ORAL, Route [Promoter]: ORAL, Species: RAT, Strain/Sex: WISTAR
  outcome: kidney: adenoma, adenocarcinoma

## O=C1O[C@H]([C@H](O)CO)C(O)=C1O
Carcinogen: N-BUTYL-N-(4-HYDROXYBUTYL)NITROSAMINE, 3817-11-6, Doses [Carcinogen]: 0.05% IN DRINKING WATER FOR 4 WK, Doses [Promoter]: 0, 5% IN DIET FOR 32 WK (STUDY DURATION: 36 WK), Route [Carcinogen]: ORAL, Route [Promoter]: ORAL, Species: RAT, Strain/Sex: F344/MALE
  outcome: urinary bladder: papilloma, carcinoma
Carcinogen: N-BUTYL-N-(4-HYDROXYBUTYL)NITROSAMINE, 3817-11-6, Doses [Carcinogen]: 0.05% IN DRINKING WATER FOR 4 WK, Doses [Promoter]: 0, 5% IN DIET FOR 32 WK BEGINNING POST CARCINOGEN (STUDY DURATION: 36 WK), Route [Carcinogen]: ORAL, Route [Promoter]: ORAL, Species: RAT, Strain/Sex: F344/MALE
  outcome: bladder: papilloma, carcinoma
